This experiment can be described thus: Cytotoxicity against human Docetaxel-resistant DU145 cell assessed as metabolic activity at 12.5 nM measured after 72 hrs by MTT assay relative to control. The class given is functional.

Drawing on ChEMBL document CHEMBL6087448, “Eradication of Therapy-Resistant Cancer Stem Cells by Novel Telmisartan Derivatives” (J Med Chem, 2025), this text covers Activity for one molecule.

As for `CC(=O)O[C@@]12CO[C@@H]1C[C@H](O)[C@@]1(C)C(=O)[C@H](O)C3=C(C)[C@@H](OC(=O)[C@H](O)[C@@H](NC(=O)OC(C)(C)C)c4ccccc4)C[C@@](O)([C@@H](OC(=O)c4ccccc4)[C@H]21)C3(C)C` [DOCETAXEL ANHYDROUS], the Activity was over 80%.
